Columns and labels:
[1] = test system: Peripheral Sensory Neuropathy Induced by Paclitaxel in Mice; assay: von Frey test, paclitaxel-induced peripheral sensory neuropathy; type: in vivo; conditions: paclitaxel 6 mg/kg once a week alone, compared with control group; three days after the administration
Excerpt: The mice in the three groups in the above (1) were put in a cage and a filament having a strength of 0.16 g was pressed on the plantar surface of the leg to measure the number of times (a score) of avoidance response.
Male Balb/c mice of 6 to 7 weeks old were used as in Example 1. The mice were divided into three groups: a control group, a paclitaxel administration group, and a paclitaxel and Lentinus edodes mycelium extract administration group (paclitaxel+Lentinus edodes mycelium extract administration group). Paclitaxel was administered to each mouse once a day at a dose of 6 mg/kg. Further, the Lentinus edodes mycelium extract was administered to each mouse once a day at a dose of 2 g/kg.
Further, the number of times of administration was set to once a week (on Day 0, Day 7, and Day 14) for paclitaxel and daily (from Day 0 to Day 15) for the Lentinus edodes mycelium extract in both the von Frey test and the cold plate test below.
Evaluation was performed in the same manner as in the test with oxaliplatin. Referring to FIG. 3, the horizontal axis indicates an elapsed time after administration (days) and the vertical axis indicates the avoidance response (scores). Open circles with a solid line represent the control group. Filled circles with a solid line represent the group in which only paclitaxel was administered. Open squares with a dash line represent the group in which paclitaxel and the Lentinus edodes mycelium extract were administered (paclitaxel+Lentinus edodes mycelium extract administration group). When the difference with the control group was determined to be significant using a significance level of 5%, the data were marked by “*”.
In the present test, the mice were divided into six groups by a difference in test objects. As in Example 1, male Balb/c mice of 6 to 7 weeks old were used. […]

[2] = test system: Peripheral Sensory Neuropathy Induced by Paclitaxel in Mice; assay: cold plate test, paclitaxel-induced peripheral sensory neuropathy; type: in vivo; conditions: paclitaxel 6 mg/kg alone; Day 3
Method: The effect of the Lentinus edodes mycelium extract on the paresthesia to cold stimulation was tested by performing the cold plate test. The mice in the three groups in the above (1) were put on a cold plate set to 10° C. and a response time for avoidance (a latency) was measured. The shorter latency means that the mouse avoids the cold stimulation of the cold plate more.
In the present test, the mice were divided into four groups by a difference in test objects. As in Example 1, male Balb/c mice of 6 to 7 weeks old were used. The mice were divided into a total of four groups, a control group, a paclitaxel administration group, and two different paclitaxel and Lentinus edodes mycelium extract administration groups (paclitaxel+Lentinus edodes mycelium extract administration groups). […] Further, a group in which the Lentinus edodes mycelium extract was administered to each mouse once a day at a dose of 1 g/kg (hereinafter referred to as “1 g/kg administration group”) and a group in which the Lentinus edodes mycelium extract was administered to each mouse once a day at a dose of 2 g/kg (hereinafter referred to as “2 g/kg administration group”) were prepared.
Evaluation was performed in the same manner as in the test with oxaliplatin. Referring to FIG. 4, the horizontal axis indicates the elapsed time after administration (days) and the vertical axis indicates the avoidance response time (seconds). Open circles with a solid line represent the control group. Filled circles with a solid line represent the group in which only paclitaxel was administered. Open squares with a dash line and filled squares with a dash line represent the groups in which paclitaxel and the Lentinus edodes mycelium extract were administered at the same time (paclitaxel+Lentinus edodes mycelium extract administration groups). […] When the difference with the control group was determined to be significant using a significance level of 5%, the data were marked by “*”. […]

CC(=O)O[C@H]1C(=O)[C@@]2(C)[C@H]([C@H](OC(=O)c3ccccc3)[C@]3(O)C[C@H](OC(=O)[C@H](O)[C@@H](NC(=O)c4ccccc4)c4ccccc4)C(C)=C1C3(C)C)[C@]1(OC(C)=O)CO[C@@H]1C[C@@H]2O [paclitaxel]
avoidance response (scores), von Frey test [1]: significantly increased | latency to the cold stimulation (avoidance response time), cold plate test [2]: significantly reduced

— US11793845B2, “Composition for ameliorating peripheral sensory neuropathy” (KINKI UNIVERSITY, priority 2016, dated 2023)
